Data as given in PMC9820303, “^αN-Acetyl β-Endorphin Is an Endogenous Ligand of σ1Rs That Regulates Mu-Opioid Receptor Signaling by Exchanging G Proteins for σ2Rs in σ1R Oligomers” (International Journal of Molecular Sciences, 2022).

Experiments:
[1] = test system: pMCAO in CD1 mice (wild-type and σ1R−/−); assay: Permanent unilateral middle cerebral artery occlusion (pMCAO), infarct size by TTC staining; format: in vivo, mouse
Experimental: Figure 1 ^αN-acetyl β-End 1–31 reduced ischemic brain damage and diminished seizures induced by NMDAR overactivation. Implication of σ1Rs. (A) ^αN-acetyl β-End 1–31 administration diminished ischemic brain damage in wild-type but not σ1R^−/− mice. Upper panel: representative 2,3,5-triphenyltetrazolium chloride (TTC)-stained brain section images obtained from saline- and drug-treated mice (3 nmol, 1 h after surgery) 48 h after pMCAO. White indicates infarction; red staining indicates normal tissue. Lower panel: the bar graphs quantitatively compare the infarct volume based on TTC staining from wild-type mice treated with saline, β-End 1–31 and the σ1R agonist PRE084 (white bars). The reducing effect of ^αN-acetyl β-End 1–31 was counteracted by β-End 1–31 and PRE084 (gray bars). In σ1R^−/− mice, the positive effect of ^αN-acetyl β-End 1–31 was not observed. […] Effects of PPCC, β-End 1–31 and ^αN-acetyl β-End 1–31 on seizures induced by NMDA in wild-type and σ1R^−/− mice. The mice received icv 1 nmol of the NMDAR agonist NMDA 30 min after the other drugs (3 nmol) and were then immediately evaluated. […] ANOVA followed by the Holm–Sidak multiple comparisons test, p < 0.05, 1-β > 0.80.
Focal cerebral ischemia was induced via pMCAO, as described previously. Briefly, mice were anesthetized and a vertical skin incision was made between the left eye and ear under a dissection microscope. After drilling a small hole in the cranium at the level of the distal portion of the middle cerebral artery, the artery was occluded by cauterization. Flow obstruction was visually verified. Animals showing subdural haemorrhages or signs of incorrect surgery were immediately excluded from the study (<5% in each group). The mice were returned to their cages after surgery, kept at room temperature, and allowed food and water ad libitum. Strong lesion reproducibility was observed. […] The investigator performing the pMCAO surgery was blinded to the treatment group. To determine the infarct size 48 h after surgery, animals were euthanized and their brains were removed, after which six 1 mm thick coronal brain slices (Brain Matrix, WPI, UK) were obtained. The sections were stained with 2,3,5-triphenyltetrazolium chloride (1% TTC, Merck-Sigma). Samples were taken from each side of all brain sections with a digital camera (Nikon Coolpix 990, Tokyo, Japan), and the extent of unstained infarct area (expressed in mm^2) was integrated from the total area as an orthogonal projection.

[2] = test system: MOR; assay: Coprecipitation of G proteins, σ2Rs and NMDAR NR1 C1 with PAG MORs after icv injection; format: in vivo, mouse; conditions: 60 min post-treatment; for effect on association of PAG MOR with G proteins, σ2Rs and NR1 C1: icv: β-End 1–31 5 pmol, ^αN-acetyl β-End 1–31 5 pmol, S1RA 3 nmol, n = 3
MOR, sequence (P42866 whole entry): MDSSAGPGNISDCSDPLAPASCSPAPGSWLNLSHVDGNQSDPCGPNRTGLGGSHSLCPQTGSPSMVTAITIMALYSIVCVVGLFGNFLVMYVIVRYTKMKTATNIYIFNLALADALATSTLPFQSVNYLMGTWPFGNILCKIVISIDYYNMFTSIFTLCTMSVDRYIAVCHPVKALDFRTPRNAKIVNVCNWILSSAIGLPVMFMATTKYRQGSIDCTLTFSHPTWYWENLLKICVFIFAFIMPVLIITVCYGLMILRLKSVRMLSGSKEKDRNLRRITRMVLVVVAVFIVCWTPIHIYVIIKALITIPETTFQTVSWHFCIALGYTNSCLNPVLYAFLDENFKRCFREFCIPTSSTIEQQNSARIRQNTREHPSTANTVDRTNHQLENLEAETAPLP
Description: The data from σ2R^−/− solubilized cortical tissue were referred to the wild-type control (arbitrary value of 1). […] For each Gα subunit and the σ1R, the immunosignals in the absence of the acetylated peptide were the controls (C, value of 1). […] (D) Coprecipitation of G proteins with MORs in CD1 wild-type and σ2R^−/− mice. MORs were immunoprecipitated (IP) from mouse SBM. Coprecipitated proteins were detached from MORs and analyzed by Western blotting with antibodies directed to Gαi2, Gαo, Gαz and MOR proteins. (E) Effect of in vivo icv injection of β-End 1–31, ^αN-acetyl β-End 1–31 and S1RA on the association of PAG MORs with G proteins, σ2Rs and NMDAR NR1 C1 subunits. β-End 1–31 (5 pmol), ^αN-acetyl β-End 1–31 (5 pmol) and S1RA (3 nmol and 10 nmol) were icv-injected, and the mice were sacrificed 60 min post-treatment to obtain the PAG synaptosomal fraction. The MORs were immunoprecipitated from the solubilized membrane preparations, and the coprecipitated target proteins were analyzed by Western blotting. […] Representative blots are shown. The immunosignal provided by the light chain of the affinity-purified anti MOR IgGs was used as SDS-PAGE loading control. […] Data were analyzed by pairwise Holm–Sidak multiple comparison tests following ANOVA: p < 0.05, 1-β > 0.80.
In immunoprecipitation studies, the cerebral cortices or periaqueductal grey matter (PAG) from 4–6 mice are typically pooled, as described previously [89]. […] The software automatically calculates the optimal exposure time for each of the areas specified to provide the strongest possible signal for accurate quantification of the sample. Protein immunosignals were measured using the area of the strongest signal for each group of samples studied (average optical density of the pixels within the object area/mm^2; AlphaEase FC software); the grey values of the means were then normalized within the 8 bit/256 grey levels [(256 − computed value)/computed value].

[3] = target: T1, σ1R oligomers (Mus musculus, UniProt O55242); assay: In vitro made σ1R oligomers on agarose-σ1R; format: biochemical, murine; conditions: agarose-σ1R plus free σ1Rs (100 nM), Tris-HCl pH 7.4, 0.2% CHAPS, 2.5 mM CaCl2
T1 construct: The coding region of the full-length murine σ1R (AF004927); GST (N); made in house; host or cells: E. coli BL21 (KRX)
T1 sequence (O55242 whole entry): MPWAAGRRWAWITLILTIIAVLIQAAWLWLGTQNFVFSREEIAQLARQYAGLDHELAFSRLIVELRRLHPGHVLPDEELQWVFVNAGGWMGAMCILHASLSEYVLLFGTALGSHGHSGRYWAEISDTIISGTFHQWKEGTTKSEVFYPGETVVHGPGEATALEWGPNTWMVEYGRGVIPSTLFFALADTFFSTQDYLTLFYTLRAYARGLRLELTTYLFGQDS
Experimental: In ex vivo fishing assays performed on mouse solubilized brain membranes enriched in synaptosomes (SBM), our bait, agarose-covalently attached σ1Rs (agarose-σ1R), captured diverse prey, such as trimeric G proteins, σ1Rs and σ2Rs (Figure 4C). Because σ1Rs form oligomers in vivo that can be altered by ligands, we added in vitro free σ1Rs to agarose-σ1Rs. After removing the unbound σ1Rs, the extent of the σ1R oligomerization that remained around the agarose-σ1R was determined by SDS-PAGE followed by Western blot analysis (Figure S3).
Figure S4. In vitro made σ1R oligomers. A) Effect of σ1R ligands on the formation of σ1R oligomers.
Agarose (Θ)-attached σ1Rs were incubated for 30 min in the presence of recombinant free σ1Rs (100 nM) in 300 μL of 50 mM Tris-HCl (pH 7.4), 0.2% CHAPS, and 2.5 mM CaCl2. After removing unbound σ1R proteins, the assays were performed in the absence (control) or presence of increasing concentrations of σ1R ligands. The agarose-bound σ1R protein complexes were obtained by centrifugation, washed three times, solubilized in 2x Laemmli buffer containing β-mercaptoethanol, resolved by SDS-PAGE, and analyzed by Western blotting (for more details see Methods). […] The G proteins that remained bound to Θ-σ1R oligomers were determined as in Figure 4C. The arrows indicate an estimated afﬁnity of the ligand for σ1Rs, as determined through in vitro assays. […]

Compound: ^αN-acetyl β-End 1–31: β-End 1–31 acetylated at N terminal Y1, α position
- infarct volume ([1]; 3 nmol icv 60 min postsurgery, 48 h after pMCAO, wild-type mice, mean ± SD, 5 to 8 mice, SD): 1.2 ± 0.9 % of the total brain volume
- reduction in the infarct size ([1]; 3 nmol icv 60 min postsurgery, 48 h after pMCAO, wild-type mice, untreated infarct 5.4 ± 1.2% of total brain volume): ~80%
- protective effect on pMCAO-produced ischemia in σ1R−/− mice ([1]; σ1R−/− mice, 3 nmol icv): did not exhibit protective effects
- effect on association of PAG MOR with G proteins, σ2Rs and NR1 C1 [2]: slightly reproduced
- effect on in vitro made σ1R oligomers [3]: released σ1Rs from these oligomers

Compound: Cl.O=C(OCCN1CCOCC1)C1(c2ccccc2)CCCCC1 [PRE084, 2-(4-morpholinethyl)-1-phenylcyclohexanecarboxylate hydrochloride, reference compound]
- effect on the neuroprotection provided by ^αN-acetyl β-End 1–31 ([1]; given with ^αN-acetyl β-End 1–31 (3 nmol icv), wild-type mice): prevented the neuroprotection
- effect on infarct volume, given alone ([1]; icv 60 min postsurgery (3 nmol), 48 h after pMCAO, wild-type mice): did not alter the extent of infarct volume

Compound: Cc1cc(OCCN2CCOCC2)nn1-c1ccc2ccccc2c1 [S1RA]
- effect on association of PAG MOR with G proteins and σ2Rs, 10 nmol ([2]; 10 nmol icv): increased MOR association with Gi2/o and σ2Rs
- effect on association of PAG MOR with G proteins, σ2Rs and NR1 C1 [2]: slightly reproduced

Compound: KKGE [β-End 28–31, C-terminal tetrapeptide of β-End 1–31]
- effect on in vitro made σ1R oligomers [3]: released σ1Rs from these oligomers
